Some results are limits rather than exact numbers.

With `Cc1ccc(C(O)C2C(=O)N(c3ccccc3)N=C2C(F)(F)F)cc1` (stereo not drawn), the melting point (as a rule, the temperature of the solid-liquid transition) stood at 257 °C.
`NC(=S)c1cc(Cl)nc(Cl)c1` registered a melting point of 145 to 150 °C.
As for `CC(C)(C)OC(=O)NC(CC(N)=O)C(=O)O` (stereo not drawn), the melting point was in the range of 179 to 182 °C.
Turning to `COc1ccc(-c2csc(/C(C#N)=N\Nc3ccc(O)cc3)n2)cc1`, the melting point is 235 °C.
The result for `C=C1C(C)C2C(Cc3ccccc3)NC(=O)C23OC(=O)C=CC(=O)CCCC(C)CC=CC3C1O` (stereo not drawn) reads 193 to 195 °C.
`NC(=S)c1ncc(C(F)(F)F)cc1Cl`: the melting point lay within 135 to 136 °C.
In turn, `Cc1cc(C(N)=S)n(C)n1` registered a melting point of 170 °C.
In turn, `O=C1C(Cl)=C(Cl)C(Cl)=C(Cl)C1(Cl)Cl` showed a melting point of 46 to 49 °C.
The result for `CC12CCCCC1CCC1C2CCC2(C)C1CCC2(O)C#Cc1ccccc1` (stereo not drawn) reads 108 to 111 °C; that for `CC(OC(=O)Nc1ccccc1)c1cccc(C(C)OC(=O)Nc2ccccc2)c1` (stereo not drawn), 136 °C; that for `Sc1ccc(Cl)cc1`, 61 °C.
Compound `CC1CS(=O)(=O)CCN1N=Cc1ccc([N+](=O)[O-])o1` (stereo not drawn) returned a melting point of 181 °C.
The result for `CN=C1CN(O)C(c2ccccc2)=c2cc(Cl)ccc2=N1` reads 236 °C.
The result for `CC(=O)c1ccc(Cl)c([N+](=O)[O-])c1` reads 98 °C; that for `N#Cc1c(NC(=O)CCl)sc2c1CCCC2`, 179 to 180 °C.
Consider `O=C1O[C@H](C(Cl)(Cl)Cl)N2CCC[C@@H]12` (relative stereo), for which the melting point was found to be 110 °C.
`CC(=O)OC1CCC2C3CCC4CC(C(C)=O)CCC4(C)C3CCC12C` (stereo not drawn) came in with a melting point of 140 °C.
Compound `Cc1ccc(-c2cc(N)[nH]n2)cc1` registered a melting point of 153 to 154 °C.
`CC#Cc1cc(C)nc(Nc2ccccc2)n1` registered a melting point of 133 °C.
The result for `Cc1cc(O)c(C(C)(C)C)cc1C(C)(C)C` reads 62.1 °C; that for `CC(=O)c1cc2c(cc1Br)OCCCO2`, 56 to 58 °C; that for `O=C(O)Cc1c(F)cccc1F`, 101 °C.
The result for `O=C(O)c1ccnc(C(=O)O)c1C(=O)O` reads 250 °C.
In the case of `COc1ccccc1C=C1C(=O)NN=C1c1c(O)c2ccccc2n(C)c1=O` it was 266 °C; in that of `O=C(O)C1Cc2cc3c(cc21)OCO3` (stereo not drawn), 150 °C.
For `CC(C)(C)N(CCO)CCO`, the melting point turned out to be 42 °C.
Take `Cn1nc(C2CC2)cc1N`: the melting point lay in the range of 120 to 123 °C.
The result for `COC(OC)(C(=O)c1ccccc1)c1ccccc1` reads 66 °C; that for `NC(=S)NCCCN1CCOCC1`, 129 to 131 °C; that for `O=C(O)C(c1ccccc1)C1CCCCC1` (stereo not drawn), 148 to 151 °C.
The result for `NC(=S)Nc1cccc(Br)c1` reads 150 to 151 °C; that for `O=Cc1ccc(F)cc1`, -10 °C.
Take `O=C(O)c1cnc2ccccn12`: the melting point was in the range of 196 to 197 °C.
Regarding `CS(=O)(=O)c1ccc(C#N)cc1`, the melting point was 137 to 142 °C.
In turn, `NC(=O)c1nc(-c2ccccc2)n(-c2ccc(Cl)c(COCC(F)(F)C(F)(F)F)c2)n1` displayed a melting point of 146 °C.
The compound `O=C(O)CN1C(=O)CSC1=S` yielded a melting point of 147 °C.
Compound `O=C(c1ccccc1)c1cnc2ccccn2c1=O` came in with a melting point of 152 to 153 °C.
The result for `CCCCCCCCCCOC(=O)CCCCC(=O)OCCCCCCCC` reads -50 °C; that for `COc1ccc(OC)c(NC(N)=S)c1`, 160 °C; that for `C/C(CCc1oc2ccc(C)cc2c1-c1ccc(C)o1)=N/O`, 103 to 104 °C.
In the case of `Nc1cccc2cc(O)ccc12` it was 191 °C.
On to `O=C(O)c1csc(-c2ccncc2)n1`, for which the melting point lay within 304 to 307 °C.
In turn, `O=C1OC(=O)c2ccc(Cl)c3cccc1c23` gave a melting point of 207 to 210 °C.
In the case of `c1ccc2c(c1)CC1c3ccccc3CCN1C2` (stereo not drawn) it was 85 °C.
Take `O=C(NC(CO)C(O)c1ccc([N+](=O)[O-])cc1)C(Cl)Cl` (stereo not drawn): the melting point came to 150 °C.
The result for `O=C(O)c1cc(S(=O)(=O)Cl)ccc1O` reads 168 to 170 °C; that for `O=S(=O)(Cl)c1ccc(Oc2ccccc2Cl)cc1`, 89 to 90 °C.
The result for `CC(=O)c1ccc2[nH]c(=O)oc2c1` reads 236 °C.
The result for `Nc1cc([N+](=O)[O-])c(/C=C/c2ccccc2)cc1/C=C/c1ccccc1` reads 111 °C; that for `NC(=O)c1cccc(F)c1F`, 116 °C; that for `N#C/C(=N/Nc1ccc(Cl)cc1)c1nc(-c2ccc(Cl)cc2)cs1`, 240 °C.
Consider `CS(=O)(=O)c1ccc(C(C=O)C=O)c([N+](=O)[O-])c1`, for which the melting point lay within 213 to 219 °C.
For `N#C/C(=N/Nc1ccc(F)cc1)c1nc(-c2ccc(Cl)cc2)cs1`, the melting point was 225 °C.
As for `Nc1c([N+](=O)[O-])ccc2ncccc12`, the melting point was 272 to 273 °C.
The result for `Cc1ccc(C#N)cc1[N+](=O)[O-]` reads 106 °C; that for `CCCOC(=O)C(C)c1ccc(-c2ccccc2)c(F)c1` (stereo not drawn), > 20 °C; that for `CN(CCO)CCO`, -21 °C.
`COc1cc(C)c(C=O)c(OC)c1` returned a melting point of 65 °C.
The result for `CC1=CS(=O)(=O)c2ccc(Cl)cc21` reads 168 to 172 °C; that for `Nc1cccc2cc3ccccc3cc12`, 116 °C.
As to `N#Cc1c(C(F)(F)F)cc(Cl)nc1Cl`, the melting point was in the range of 38 to 40 °C.
The result for `NC(=S)c1c(Cl)cc(C(F)(F)F)cc1Cl` reads 176 to 178 °C; that for `CC(=O)Oc1ccc([N+](=O)[O-])cc1`, 76 to 79 °C; that for `N=c1sc(C(=O)c2cccs2)nn1-c1ccncc1`, 131 °C.
The compound `O=C(Cl)c1cccc2c1OCC2` gave a melting point of 55 to 61 °C.
Consider `O=C(O)C(Br)C(Br)C(=O)O` (stereo not drawn), for which the melting point is 275 °C.
`O=C(S)c1ccccc1` displayed a melting point of 24 °C.
As to `CC1=NN(c2ccc(S(=O)(=O)O)cc2)C(=O)C1`, the melting point was 300 °C.
For the compound `CC(=O)OCC(=O)C1(O)C(OC(C)=O)CC2C3CCC4=CC(=O)C=CC4(C)C3(F)C(O)CC21C` (stereo not drawn), the melting point came to 235 °C.
The compound `O=C(O)CCc1nc(-c2ccccc2)c(-c2ccccc2)o1` registered a melting point of 160 °C.
The result for `Cc1cc(C)c([N+](=O)[O-])c(C)c1` reads 44 °C; that for `O=[N+]([O-])c1ccc(OCC2CO2)cc1` (stereo not drawn), 54 to 55 °C.
In the case of `CC/C=C/CCCC` it was -110 °C; in that of `CC(C)(O)CCCC1=CCC(C=O)CC1` (stereo not drawn), -30 °C; in that of `NS(=O)(=O)c1cnccc1Cl`, 150 to 155 °C.
In the case of `CC(=O)C1CCC2C3CCC4CC(=O)CCC4(C)C3CCC12C` (stereo not drawn) it was 200 °C.
In turn, `OCC(O)C(O)C(OC1OC(CO)C(O)C(O)C1O)C(O)CO` (stereo not drawn) had a melting point of 151 °C.
For `O=[N+]([O-])c1ccccc1C(Cl)C(Cl)c1ccccn1` (stereo not drawn), the melting point was 144 °C.
In the case of `Nc1nc(-c2ccccc2)cs1` it was 150 °C.
`CC(CCc1ccc(CCC(C)OC(=O)Nc2ccccc2)cc1)OC(=O)Nc1ccccc1` (stereo not drawn) returned a melting point of 165 °C.
The result for `CCOC(=O)CCN(Cc1ccccc1)SN(C)C(=O)ON=C(C)SC` reads 47 °C.
The result for `OC1CCCCCC1` reads 2 °C.
The compound `CCOC(CNC(=O)C(N)=O)OCC` returned a melting point of 138 to 140 °C.
The compound `CNC(=O)Oc1cccc2ccccc12` gave a melting point of 142 °C.
Compound `CCCCCCOc1ccccc1C(N)=O` yielded a melting point of 71 °C.
The result for `Cc1c(NC(=O)C(F)(F)C(F)(F)C(F)(F)C(F)(F)C(F)(F)C(F)(F)C(F)(F)C(F)(F)F)c(=O)n(-c2ccccc2)n1C` reads 177 °C.
`CC12CCC(C(CCC3C(=O)C4(C)CCC3C4(C)C)C1=O)C2(C)C` (stereo not drawn): the melting point amounted to 210 °C.
`CCOC(=O)C(C#N)=C1CC(SC)=C(C(=O)OCC)C(=N)N1c1ccc(OC)cc1` yielded a melting point of 172 °C.
In the case of `O=S(=O)(O)c1ccc(Nc2ccccc2)cc1`, the melting point was 206 °C.
For the compound `C(=NC(N=Cc1ccco1)c1ccco1)c1ccco1` (stereo not drawn), the melting point came to 117 °C.
In the case of `C=CC1C2=CCOC(=O)C2=COC1OC1OC(CO)C(O)C(O)C1O` (stereo not drawn) it was 191 °C; in that of `O=C(Cl)c1ccsc1`, 50 to 54 °C; in that of `O=C(O)c1cccc2c1OCO2`, 224 to 225 °C.
The compound `Cc1c(C)c(C)c(Br)c(Br)c1C` displayed a melting point of 72 °C.
As to `NCCCNC1CCCCC1`, the melting point is -18 °C.
For the compound `N#C/C(=C/c1cccs1)c1nc(-c2ccc(Cl)cc2)cs1`, the melting point is 170 °C.
The result for `Cc1onc(-c2c(F)cccc2Cl)c1C#N` reads 78 to 81 °C.
`O=c1c(N2CCCC2)c(N2CCOCC2)c1=O` registered a melting point of 251 to 254 °C.
In turn, `Nc1ccc(-c2ccccc2N)cc1` returned a melting point of 54.5 °C.
In the case of `c1ccc2c(c1)ccc1c2ccc2c3ccccc3ccc21` it was 368 °C.
Turning to `Nc1ccc(Sc2cc(Cl)ccc2Cl)nc1`, the melting point lay within 108 to 109 °C.
With `Nc1ccc(Nc2ccc([N+](=O)[O-])cc2[N+](=O)[O-])cc1`, the melting point stood at 188 °C.
The result for `NC(=O)CS(=O)C(c1ccccc1)c1ccccc1` (stereo not drawn) reads 164 °C; that for `CCCOC(=O)c1ccc(OC(=O)c2ccc(C(=O)Oc3ccc(C(=O)OCCC)cc3)cc2)cc1`, 129 to 205 °C; that for `O=C(CCl)Oc1ccccc1`, 44.5 °C.
The result for `COC(=O)CC(=O)CCl` reads 14 to 16 °C; that for `CC(=O)C(C(=O)OC1CC(C)CCC1C(C)C)C(C)C(C(C)=O)C(=O)OC1CC(C)CCC1C(C)C` (stereo not drawn), 200 °C; that for `FC(F)(F)C(Cl)C(F)(F)F`, -120 °C.
